Data reported in ChEMBL document CHEMBL1201862, “PubChem BioAssay data set” (2004).
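Cells were grown in 96-well plates and exposed to each compound for 48 hours at five concentrations; endpoints were interpolated linearly between bracketing concentrations, or set to the highest concentration if not reached. GI50: concentration for 50% inhibition of growth.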 The source made the active and inactive calls. No stated cut-off is given here; in the data, active = GI50 up to about 1.1 µM and inactive = higher.

Assays:
Experiment in all cases: DTP human tumour cell line panel, 48 h
[1] = tested on: SR
[2] = tested on: M19-MEL
[3] = tested on: DMS-114
[4] = tested on: HOP-62
[5] = tested on: K562
[6] = tested on: RXF 631
[7] = tested on: DMS-273
[8] = tested on: NCI-H23
[9] = tested on: A549
[10] = tested on: SF-268
[11] = tested on: CAKI-1
[12] = tested on: M14
[13] = tested on: COLO 205
[14] = tested on: HCT-116
[15] = tested on: OVCAR-3
[16] = tested on: DLD-1
[17] = tested on: SK-MEL-5
[18] = tested on: 786-0
[19] = tested on: MOLT-4
[20] = tested on: HCC 2998
[21] = tested on: HOP-18
[22] = tested on: A498
[23] = tested on: UO-31
[24] = tested on: SN12C
[25] = tested on: LOX IMVI
[26] = tested on: OVCAR-4
[27] = tested on: Malme-3M
[28] = tested on: HL-60
[29] = tested on: U-251
[30] = tested on: SW-620
[31] = tested on: IGROV-1
[32] = tested on: SK-MEL-28
[33] = tested on: HCT-15
[34] = tested on: NCI-H226
[35] = tested on: HOP-92
[36] = tested on: HT-29
[37] = tested on: SK-OV-3
[38] = tested on: OVCAR-8
[39] = tested on: NCI-H460
[40] = tested on: LXFL 529
[41] = tested on: ACHN
[42] = tested on: RPMI-8226
[43] = tested on: UACC-257
[44] = tested on: OVCAR-5
[45] = tested on: TK-10
[46] = tested on: SNB-19
[47] = tested on: KM-20L2
[48] = tested on: CCRF-CEM
[49] = tested on: UACC-62
[50] = tested on: SF-295
[51] = tested on: KM12
[52] = tested on: RXF 393
[53] = tested on: XF498
[54] = tested on: SK-MEL-2
[55] = tested on: NCI-H522
[56] = tested on: SNB-78
[57] = tested on: SNB-75
[58] = tested on: EKVX

SMILES: OCC12C=CC(C1)c1ccccc12 (stereo not drawn)
- GI50 [1]: > 100 µM (inactive)
- GI50 [2]: > 100 µM (inactive)
- GI50 [3]: > 100 µM (inactive)
- GI50 [4]: > 100 µM (inactive)
- GI50 [5]: > 100 µM (inactive)
- GI50 [6]: > 100 µM (inactive)
- GI50 [7]: > 100 µM (inactive)
- GI50 [8]: > 100 µM (inactive)
- GI50 [9]: > 100 µM (inactive)
- GI50 [10]: > 100 µM (inactive)
- GI50 [11]: > 100 µM (inactive)
- GI50 [12]: > 100 µM (inactive)
- GI50 [13]: > 100 µM (inactive)
- GI50 [14]: > 100 µM (inactive)
- GI50 [15]: > 100 µM (inactive)
- GI50 [16]: > 100 µM (inactive)
- GI50 [17]: > 100 µM (inactive)
- GI50 [18]: > 100 µM (inactive)
- GI50 [19]: > 100 µM (inactive)
- GI50 [20]: > 100 µM (inactive)
- GI50 [21]: > 100 µM (inactive)
- GI50 [22]: > 100 µM (inactive)
- GI50 [23]: > 100 µM (inactive)
- GI50 [24]: > 100 µM (inactive)
- GI50 [25]: > 100 µM (inactive)
- GI50 [26]: > 100 µM (inactive)
- GI50 [27]: > 100 µM (inactive)
- GI50 [28]: > 100 µM (inactive)
- GI50 [29]: > 100 µM (inactive)
- GI50 [30]: > 100 µM (inactive)
- GI50 [31]: > 100 µM (inactive)
- GI50 [32]: > 100 µM (inactive)
- GI50 [33]: > 100 µM
- GI50 [34]: > 100 µM (inactive)
- GI50 [35]: > 100 µM (inactive)
- GI50 [36]: > 100 µM (inactive)
- GI50 [37]: > 100 µM (inactive)
- GI50 [38]: > 100 µM (inactive)
- GI50 [39]: > 100 µM (inactive)
- GI50 [40]: > 100 µM (inactive)
- GI50 [41]: > 100 µM (inactive)
- GI50 [42]: > 100 µM (inactive)
- GI50 [43]: > 100 µM (inactive)
- GI50 [44]: > 100 µM (inactive)
- GI50 [45]: > 100 µM (inactive)
- GI50 [46]: > 100 µM (inactive)
- GI50 [47]: > 100 µM (inactive)
- GI50 [48]: > 100 µM (inactive)
- GI50 [49]: > 100 µM (inactive)
- GI50 [50]: > 100 µM (inactive)

SMILES: CC(=O)OC12/C(=N/O)CCCCCC1c1ccccc12 (stereo not drawn)
- GI50 [1]: 30.4 µM (inactive)
- GI50 [51]: > 100 µM (inactive)
- GI50 [2]: > 100 µM (inactive)
- GI50 [3]: 41.7 µM (inactive)
- GI50 [4]: > 100 µM (inactive)
- GI50 [52]: 29.6 µM (inactive)
- GI50 [5]: 39.2 µM (inactive)
- GI50 [7]: > 100 µM (inactive)
- GI50 [8]: 70.8 µM (inactive)
- GI50 [9]: > 100 µM (inactive)
- GI50 [10]: > 100 µM (inactive)
- GI50 [53]: 62.8 µM (inactive)
- GI50 [13]: > 100 µM (inactive)
- GI50 [14]: 84.7 µM (inactive)
- GI50 [54]: > 100 µM (inactive)
- GI50 [55]: 31.2 µM (inactive)
- GI50 [17]: > 100 µM (inactive)
- GI50 [18]: > 100 µM (inactive)
- GI50 [19]: 25.4 µM (inactive)
- GI50 [21]: > 100 µM (inactive)
- GI50 [23]: 27.5 µM (inactive)
- GI50 [56]: 36.3 µM (inactive)
- GI50 [24]: > 100 µM (inactive)
- GI50 [25]: > 100 µM (inactive)
- GI50 [26]: 60.8 µM (inactive)
- GI50 [27]: > 100 µM (inactive)
- GI50 [28]: 64.3 µM (inactive)
- GI50 [29]: > 100 µM (inactive)
- GI50 [30]: > 100 µM (inactive)
- GI50 [32]: > 100 µM (inactive)
- GI50 [57]: 42.8 µM (inactive)
- GI50 [33]: > 100 µM
- GI50 [34]: > 100 µM (inactive)
- GI50 [36]: > 100 µM (inactive)
- GI50 [37]: > 100 µM (inactive)
- GI50 [58]: 68.1 µM (inactive)
- GI50 [38]: > 100 µM (inactive)
- GI50 [39]: > 100 µM (inactive)
- GI50 [40]: 66.8 µM (inactive)
- GI50 [41]: 95.3 µM (inactive)
- GI50 [42]: 33.6 µM (inactive)
- GI50 [43]: 74.8 µM (inactive)
- GI50 [45]: > 100 µM (inactive)
- GI50 [46]: > 100 µM (inactive)
- GI50 [47]: > 100 µM (inactive)
- GI50 [48]: 26.4 µM (inactive)
- GI50 [49]: 95.5 µM (inactive)
- GI50 [50]: 96.8 µM (inactive)
